Laboratory results from US20050025841A1, “Therapeutic methods using herbal compositions” (priority 2001, published 2005).

Key:
[1] = tested on: polychromatic erythrocytes in the mouse bone marrow; conditions: CTX 30 mg/kg alone; 8000 cells
[2] = tested on: breast cancer; conditions: women at high risk of breast cancer, versus placebo; cited from earlier work

Structure (SMILES)	Micronucleus Rate [1] [%0]	decrease in invasive cancer [2] [%]	decrease in non-invasive breast cancer [2] [%]
O=P1(N(CCCl)CCCl)NCCCO1 (stereo not drawn) [CTX, cyclophosphamide]	17.3 ± 1.1	–	–
CC/C(=C(\c1ccccc1)c1ccc(OCCN(C)C)cc1)c1ccccc1 [Tamoxifen]	–	49	50
